Patent publication US20240383908A1, “SYNTHESIS AND APPLICATION OF PHOSPHATASE DEGRADER” (HINOVA PHARMACEUTICALS INC., priority 2021, published 2024)

These compounds were tested against T1, SHP2 protein (Homo sapiens, UniProt Q06124) (assay: Degradation activity on SHP2 protein in MV-411 cells (Western blot, DC50)). Conditions: MV411 cells, 24 hours, read-out: Degradation activity for differenct cell lines MV411 (DC50).
T1 sequence (Q06124 1-593): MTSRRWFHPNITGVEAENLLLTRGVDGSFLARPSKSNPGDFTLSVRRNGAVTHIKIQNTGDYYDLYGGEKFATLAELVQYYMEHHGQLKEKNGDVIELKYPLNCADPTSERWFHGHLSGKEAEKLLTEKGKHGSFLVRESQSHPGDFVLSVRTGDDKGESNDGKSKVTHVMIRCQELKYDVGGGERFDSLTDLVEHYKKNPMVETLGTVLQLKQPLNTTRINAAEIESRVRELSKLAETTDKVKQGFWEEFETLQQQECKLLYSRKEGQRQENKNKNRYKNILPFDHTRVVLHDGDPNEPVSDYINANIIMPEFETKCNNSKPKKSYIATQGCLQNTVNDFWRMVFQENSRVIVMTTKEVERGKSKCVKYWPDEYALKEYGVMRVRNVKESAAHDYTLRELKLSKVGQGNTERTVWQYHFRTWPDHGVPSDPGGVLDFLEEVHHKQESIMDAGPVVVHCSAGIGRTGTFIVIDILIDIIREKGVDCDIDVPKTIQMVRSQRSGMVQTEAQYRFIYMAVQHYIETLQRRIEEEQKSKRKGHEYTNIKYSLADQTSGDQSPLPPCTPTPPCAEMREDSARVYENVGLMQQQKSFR
Format: cell-based
Parameters: endogenous in cells
Protocol: • MV-411 cell line (COBIER, CBP-60522) • FBS (GEMINI, Cat. No. 900-108) • 0.01M PBS (Biosharp, Cat. No. 162262) • IMDM (Hyclone, Cat. No. SH30228.01) • Penicillin-Streptomycin (Gibco, Cat. No. 15140122) • DMSO (Sigma, Cat. No. D5879) • Centrifuge Tube, 15 ml (Excell Bio, Cat. No. CS015-0001) • Cell Culture Dish, (WHB, Cat. No. CS016-0128) • 12-well cell culture cluster (Corning, Cat. No. 3513) • RIPA lysate buffer (Thermo, Cat. No. 89900) • Protein Loding Buffer (Beyotime, Cat. No. P0015L) • BCA Protein Assay Kit (EpiZyme, Cat. No. ZJ102) • SDS-PAGE Fast Preparation Kit (EpiZyme, Cat. No. PG112) • Anti-GAPDH (14C10) Rabbit mAb (CST, Cat. No. 2118L) • Anti-SHP2 rabbit mAb (CST, Cat. No. 37525) • Peroxidase Affinipure (HRP) Goat Anti-Rabbit IgG (Zen Bioscience, Cat. No. 511203) • TBST (Biosharp, Cat. No. BL601A) • ECL chemiluminescence kit (4A Biotech, Cat. No. 4AW011-200)
• (1) Cell culture medium: IMIDM medium+10% FBS+1% Pen Strep; • (2) PBS buffer: PBS powder was dissolved in 2 L of ultrapure water and sterilized; • (3) Cell lysate: RIPA lysate buffer is added with protease inhibitors at a ratio of 1:1000 before use.
(1) MV-411 cells were cultured in the cell culture medium, and then well-growing cells were selected and inoculated in a 12-well plate, with 1 mL/well and 1×10^6 cells/well. The plate was incubated overnight in a 5% CO2 cell incubator at 37° C.
(2) 10 mM storage solution of each drug was prepared using dimethylsulfoxide (DMSO). The stock solution was diluted gradually with DMSO before use, and then 1 μL of the compound solution was added to the cell culture well (to ensure that the DMSO concentration in the culture system was […]), so that the final drug concentration is 100 nM, 10 nM, 3 nM, 1 nM, 0.3 nM, and 0.1 nM. Two wells were set for each concentration. The plate was gently shaken and mixed. Additionally, negative control wells (containing an equal amount of DMSO) and positive control wells were included.
(3) After 24 hours of cultivation, the cells were lysed using RIPA cell lysate, and the proteins were extracted. The protein concentration was measured using a BCA assay kit. 5× concentrated protein buffer was loaded, heated at 100° C. for 5 min, and then the sample was stored at −20° C.
(4) For each well, 30 μg of protein was loaded to polyacrylamide gel for electrophoresis.
(5) The protein was transferred from polyacrylamide gel to PVDF membrane, and sealed at room temperature with 5% skimmed milk for 1 h, which was then incubated with the primary antibodies (Anti-SHP2 rabbit mAb and Anti-GAPDH rabbit mAb) at 4° C. overnight. The membrane was washed three times with TBST solution, 10 minutes for each time. After that, the membrane was incubated with the secondary antibodies (horseradish peroxidase labeled goat anti-rabbit IgG) at room temperature for 2 h, and then washed three times with TBST solution, 10 minutes for each time, followed by exposure.
(6) The images were analyzed with Image J grayscale, and the degradation ratio of protein bands in the test group was calculated, based on the negative control group (DMSO) (100%).
(7) Using the Dose-response-inhibition equation in the data processing software GraphPad Prism 8, the DC50 value was obtained (which represents the drug concentration corresponding to 50% degradation of the target protein).
Finally, ECL detection solution was added for color development, and photos were taken with an automatic chemiluminescence instrument, so as to collect images and analyze them.
Work on `CC1(CN)CCN(c2cnc(Sc3cccc(NC(=O)CCC(=O)N4CCN(CCCCCCCCC(=O)Nc5ccc6c(c5)CN(C5CCC(=O)NC5=O)C6=O)CC4)c3Cl)cn2)CC1` (centres unmarked) [Compound 14] yielded a DC50 of under 0.1 µM. `CC1(CN)CCN(c2cnc(Sc3cccc(NC(=O)CCC(=O)N4CCN(CCCCCCCCC(=O)NCc5ccc6c(c5)CN(C5CCC(=O)NC5=O)C6=O)CC4)c3Cl)cn2)CC1` (centres unmarked) [Compound 15, 9-(4-(4-((3-((5-(4-(aminomethyl)-4-methylpyridin-1-yl)pyrazin-2-yl)thio)-2-chlorophenyl)amino)-4-oxobutyryl)piperazin-1-yl)-N-((2-(2,6-dioxopiperidin-3-yl)-1-oxoisoindol-5-yl)methyl)nonanamide] was tested, and the DC50 was under 0.1 µM. `CC1(CN)CCN(c2cnc(Sc3cccc(NC(=O)CCC(=O)N4CCN(CCCCCCCCC(=O)Nc5ccc6c(c5)C(=O)N(C5CCC(=O)NC5=O)C6)CC4)c3Cl)cn2)CC1` (centres unmarked) [Compound 16] gave a DC50 of under 0.1 µM. For `CC1(N)CCN(c2cnc(Sc3cccc(NC(=O)COCCOCCOCCOCC(=O)Nc4cccc5c4CN(C4CCC(=O)NC4=O)C5=O)c3)cn2)CC1` (centres unmarked) [Compound 17], the DC50 was over 1 µM. For `CC1(N)CCN(c2cnc(Sc3cccc(NC(=O)COCCOCCOCCOCC(=O)Nc4ccc5c(c4)CN(C4CCC(=O)NC4=O)C5=O)c3)cn2)CC1` (centres unmarked) [Compound 18], the DC50 was over 1 µM. `CC1(N)CCN(c2cnc(Sc3cccc(NC(=O)CCC(=O)NCCOCCOCC(=O)NCc4ccc5c(c4)CN(C4CCC(=O)NC4=O)C5=O)c3)cn2)CC1` (centres unmarked) [Compound 19] was tested, and the DC50 was over 1 µM. `Cc1nc2cccc(NC(=O)COCCOCCNC(=O)CCC(=O)Nc3cccc(Sc4cnc(N5CCC(C)(N)CC5)cn4)c3)c2c(=O)n1C1CCC(=O)NC1=O` (centres unmarked) [Compound 20] showed a DC50 of over 1 µM. Compound `CC1(N)CCN(c2cnc(Sc3cccc(NC(=O)CCC(=O)NCCOCCOCCOCC(=O)NCc4ccc5c(c4)CN(C4CCC(=O)NC4=O)C5=O)c3)cn2)CC1` (centres unmarked) [Compound 21] has a DC50 of over 1 µM. For `CC1(N)CCN(c2cnc(Sc3cccc(NC(=O)CCC(=O)NCCOCCOCCOCC(=O)Nc4ccc5c(c4)C(=O)N(C4CCC(=O)NC4=O)C5)c3)cn2)CC1` (centres unmarked) [Compound 22], the DC50 was over 1 µM. For `CC1(N)CCN(c2cnc(Sc3cccc(NC(=O)[C@H]4CCC[C@@H]4C(=O)N4CCN(CCCCCCCCC(=O)Nc5ccc6c(c5)C(=O)N(C5CCC(=O)NC5=O)C6)CC4)c3)cn2)CC1` (some centres unmarked) [Compound 24], the DC50 was over 1 µM. With `CC1(N)CCN(c2cnc(Sc3cccc(NC(=O)[C@H]4CCC[C@@H]4C(=O)N4CCN(CCCCCCCCC(=O)NCc5ccc6c(c5)CN(C5CCC(=O)NC5=O)C6=O)CC4)c3)cn2)CC1` (some centres unmarked) [Compound 25] the DC50 was over 1 µM. Work on `CC1(N)CCN(c2cnc(Sc3cccc(NC(=O)CCC(=O)N4CC5(CN(CCCCCCCC(=O)Nc6ccc7c(c6)C(=O)N(C6CCC(=O)NC6=O)C7)C5)C4)c3)cn2)CC1` (centres unmarked) [Compound 26] yielded a DC50 of over 1 µM. `CC1(N)CCN(c2cnc(Sc3cccc(NC(=O)CCC(=O)N4CCN(CCCCCCCCC(=O)NCc5ccc6c(c5)CN(C5CCC(=O)NC5=O)C6=O)CC4)c3)cn2)CC1` (centres unmarked) [Compound 27] gave a DC50 of under 0.1 µM. With `Cc1ncsc1-c1ccc([C@H](C)NC(=O)[C@@H]2C[C@@H](O)CN2C(=O)[C@@H](NC(=O)CCCCCCCCN2CCN(C(=O)[C@H]3CCC[C@@H]3C(=O)Nc3cccc(Sc4cnc(N5CCC(C)(N)CC5)cn4)c3)CC2)C(C)(C)C)cc1` [Compound 28] the DC50 was under 0.1 µM. With `CC1(N)CCN(c2cnc(Sc3cccc(NC(=O)CCC(=O)NCCOCCOCC(=O)Nc4cccc5c4CN(C4CCC(=O)NC4=O)C5=O)c3)cn2)CC1` (centres unmarked) [Compound 29] the DC50 was over 1 µM. Compound `CC1(N)CCN(c2cnc(Sc3cccc(NC(=O)CCC(=O)NCCOCCOCC(=O)Nc4ccc5c(c4)CN(C4CCC(=O)NC4=O)C5=O)c3)cn2)CC1` (centres unmarked) [Compound 30] has a DC50 of over 1 µM. `CC1(N)CCN(c2cnc(Sc3cccc(NC(=O)CCC(=O)N4CC5(CN(CCCCCCCC(=O)NCc6ccc7c(c6)CN(C6CCC(=O)NC6=O)C7=O)C5)C4)c3)cn2)CC1` (centres unmarked) [Compound 31] gave a DC50 of over 1 µM. For `Cc1ncsc1-c1ccc([C@H](C)NC(=O)[C@@H]2C[C@@H](O)CN2C(=O)[C@@H](NC(=O)CCCCCCCCN2CCN(C(=O)CCC(=O)Nc3cccc(Sc4cnc(N5CCC(C)(N)CC5)cn4)c3)CC2)C(C)(C)C)cc1` [Compound 34], the DC50 was under 0.1 µM. For `Cc1nc2cccc(NC(=O)CCCCCCCCN3CCN(C(=O)CCC(=O)Nc4cccc(Sc5cnc(N6CCC(C)(N)CC6)cn5)c4)CC3)c2c(=O)n1C1CCC(=O)NC1=O` (centres unmarked) [Compound 35], the DC50 was over 1 µM. `Cc1ncsc1-c1ccc([C@H](C)NC(=O)[C@@H]2C[C@@H](O)CN2C(=O)[C@@H](NC(=O)CCCCCCCCCCN2CCC(C(=O)Nc3cccc(Sc4cnc(N5CCC(C)(N)CC5)cn4)c3)CC2)C(C)(C)C)cc1` [Compound 36] showed a DC50 of over 1 µM. `CC1(N)CCN(c2cnc(Sc3cccc(NC(=O)C4CCN(CCCCCCCCCCC(=O)NCc5ccc6c(c5)CN(C5CCC(=O)NC5=O)C6=O)CC4)c3)cn2)CC1` (centres unmarked) [Compound 37] gave a DC50 of over 1 µM. With `CC1(N)CCN(c2cnc(Sc3cccc(NC(=O)[C@@H]4C[C@H]4C(=O)N4CC5(CN(CCCCCCCC(=O)NCc6ccc7c(c6)CN(C6CCC(=O)NC6=O)C7=O)C5)C4)c3)cn2)CC1` (some centres unmarked) [Compound 38] the DC50 was under 0.1 µM. Work on `Cc1ncsc1-c1ccc([C@H](C)NC(=O)[C@@H]2C[C@@H](O)CN2C(=O)[C@@H](NC(=O)CCCCCCCN2CC3(C2)CN(C(=O)[C@@H]2C[C@H]2C(=O)Nc2cccc(Sc4cnc(N5CCC(C)(N)CC5)cn4)c2)C3)C(C)(C)C)cc1` [Compound 39] yielded a DC50 of under 0.1 µM. In the case of `CC1(N)CCN(c2cnc(Sc3cccc(NC(=O)CCCCCCCCCCC(=O)NCc4ccc5c(c4)CN(C4CCC(=O)NC4=O)C5=O)c3)cn2)CC1` (centres unmarked) [Compound 40], the DC50 is reported as under 0.1 µM. In the case of `CC1(N)CCN(c2cnc(Sc3cccc(NC(=O)CCCCCCCCCCCCC(=O)NCc4ccc5c(c4)CN(C4CCC(=O)NC4=O)C5=O)c3)cn2)CC1` (centres unmarked) [Compound 41], the DC50 is reported as over 1 µM. Work on `CC1(N)CCN(c2cnc(Sc3cccc(NC(=O)CCCCCCCCCCCCCCC(=O)NCc4ccc5c(c4)CN(C4CCC(=O)NC4=O)C5=O)c3)cn2)CC1` (centres unmarked) [Compound 42] yielded a DC50 of over 1 µM. `CC1(N)CCN(c2cnc(Sc3cccc(NC(=O)C4CN(CCCCCCCCCCC(=O)NCc5ccc6c(c5)CN(C5CCC(=O)NC5=O)C6=O)C4)c3)cn2)CC1` (centres unmarked) [Compound 43] was tested, and the DC50 was over 1 µM. Work on `Cc1ncsc1-c1ccc([C@H](C)NC(=O)[C@@H]2C[C@@H](O)CN2C(=O)[C@@H](NC(=O)CCCCCCCCCCN2CC(C(=O)Nc3cccc(Sc4cnc(N5CCC(C)(N)CC5)cn4)c3)C2)C(C)(C)C)cc1` [Compound 44] yielded a DC50 of 0.1 to 1 µM. In the case of `CC1(N)CCN(c2cnc(Sc3cccc(NC(=O)CCN4CC5(CCN(CCCCCC(=O)NCc6cccc7c6CN(C6CCC(=O)NC6=O)C7=O)C5)C4)c3)cn2)CC1` (centres unmarked) [Compound 45], the DC50 is reported as 0.1 to 1 µM.
